Measurements taken from PubChem BioAssay (NCI).
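These data come from cells grown in 96-well plates and exposed to compound for 48 hours at five concentrations. Here, GI50 denotes the concentration required for 50% inhibition of growth. The concentration for full growth arrest is given as TGI.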

Legend:
Experiment in all cases: NCI tumour cell line growth inhibition, 48 h
NCI-H226 lung = system: NCI-H226 lung
CAKI-1 renal = system: CAKI-1 renal
OVCAR-8 ovarian = system: OVCAR-8 ovarian
SK-MEL-5 melanoma = system: SK-MEL-5 melanoma
MDA-MB-468 breast = system: MDA-MB-468 breast
NCI-H522 lung = system: NCI-H522 lung
MDA-MB-435 = system: MDA-MB-435
OVCAR-4 ovarian = system: OVCAR-4 ovarian
DU-145 prostate = system: DU-145 prostate
ACHN renal = system: ACHN renal
SF-268 CNS = system: SF-268 CNS
T-47D breast = system: T-47D breast
COLO 205 colon = system: COLO 205 colon
SF-539 CNS = system: SF-539 CNS
HL-60(TB) leukemia = system: HL-60(TB) leukemia
HCC-2998 colon = system: HCC-2998 colon
MCF7 breast = system: MCF7 breast
SK-MEL-2 melanoma = system: SK-MEL-2 melanoma
UO-31 renal = system: UO-31 renal
A498 renal = system: A498 renal
NCI-H23 lung = system: NCI-H23 lung
SK-OV-3 ovarian = system: SK-OV-3 ovarian
HS 578T breast = system: HS 578T breast
PC-3 prostate = system: PC-3 prostate
HOP-92 NSCLC = system: HOP-92 NSCLC
M14 melanoma = system: M14 melanoma
KM12 colon = system: KM12 colon
UACC-62 melanoma = system: UACC-62 melanoma
LOX IMVI melanoma = system: LOX IMVI melanoma
NCI/ADR-RES ovarian = system: NCI/ADR-RES ovarian
TK-10 renal = system: TK-10 renal
SNB-75 CNS = system: SNB-75 CNS
SNB-19 CNS = system: SNB-19 CNS
RPMI-8226 leukemia = system: RPMI-8226 leukemia
HT29 colon = system: HT29 colon
OVCAR-3 ovarian = system: OVCAR-3 ovarian
U251 CNS = system: U251 CNS
BT-549 breast = system: BT-549 breast
SN12C renal = system: SN12C renal
NCI-H460 lung = system: NCI-H460 lung
HCT-116 colon = system: HCT-116 colon
CCRF-CEM leukemia = system: CCRF-CEM leukemia
IGROV1 ovarian = system: IGROV1 ovarian
SR leukemia = system: SR leukemia
SK-MEL-28 melanoma = system: SK-MEL-28 melanoma
K-562 leukemia = system: K-562 leukemia
HOP-62 NSCLC = system: HOP-62 NSCLC
OVCAR-5 ovarian = system: OVCAR-5 ovarian
786-0 renal = system: 786-0 renal
HCT-15 colon = system: HCT-15 colon
SF-295 CNS = system: SF-295 CNS
MDA-MB-231 breast = system: MDA-MB-231 breast
SW-620 colon = system: SW-620 colon
MALME-3M melanoma = system: MALME-3M melanoma
A549 NSCLC = system: A549 NSCLC
EKVX NSCLC = system: EKVX NSCLC
RXF 393 renal = system: RXF 393 renal
UACC-257 melanoma = system: UACC-257 melanoma
MOLT-4 leukemia = system: MOLT-4 leukemia

## CCOC(=O)c1ccc(NC(=S)NC(=O)c2ccc(NC(=O)C(C)C)cc2OC)cc1
NCI-H226 lung
  GI50: 4.46 µM
  TGI: 36.8 µM
CAKI-1 renal
  GI50: 17.8 µM
  TGI: 80.8 µM
OVCAR-8 ovarian
  GI50: 16.4 µM
  TGI: > 100 µM
SK-MEL-5 melanoma
  GI50: 2.14 µM
  TGI: 5.79 µM
MDA-MB-468 breast
  GI50: 2.04 µM
  TGI: 8.09 µM
NCI-H522 lung
  GI50: 3.79 µM
  TGI: > 100 µM
MDA-MB-435
  GI50: 15.2 µM
  TGI: > 100 µM
OVCAR-4 ovarian
  GI50: 9.21 µM
  TGI: 71.6 µM
DU-145 prostate
  GI50: 34.7 µM
  TGI: > 100 µM
ACHN renal
  GI50: 26 µM
  TGI: > 100 µM
SF-268 CNS
  GI50: 20.7 µM
  TGI: > 100 µM
T-47D breast
  GI50: 2.35 µM
  TGI: 11.2 µM
COLO 205 colon
  GI50: 15.5 µM
  TGI: 42.3 µM
SF-539 CNS
  GI50: 27.7 µM
  TGI: > 100 µM
HL-60(TB) leukemia
  GI50: 2.45 µM
  TGI: 25.2 µM
HCC-2998 colon
  GI50: 20.3 µM
  TGI: > 100 µM
MCF7 breast
  GI50: 3.26 µM
  TGI: 37.2 µM
SK-MEL-2 melanoma
  GI50: 14.9 µM
  TGI: 62.9 µM
UO-31 renal
  GI50: 11.3 µM
  TGI: 79.3 µM
A498 renal
  GI50: 28.1 µM
  TGI: > 100 µM
NCI-H23 lung
  GI50: 3.71 µM
  TGI: 29.7 µM
SK-OV-3 ovarian
  GI50: 35.6 µM
  TGI: > 100 µM
HS 578T breast
  GI50: 31.7 µM
  TGI: > 100 µM
PC-3 prostate
  GI50: 6.41 µM
  TGI: 69.9 µM
HOP-92 NSCLC
  GI50: 13.8 µM
  TGI: 44.8 µM
M14 melanoma
  GI50: 5.83 µM
  TGI: 63.1 µM
KM12 colon
  GI50: 6.37 µM
  TGI: > 100 µM
UACC-62 melanoma
  GI50: 11.7 µM
  TGI: 53.7 µM
LOX IMVI melanoma
  GI50: 11.6 µM
  TGI: > 100 µM
NCI/ADR-RES ovarian
  GI50: 12.6 µM
  TGI: 48.3 µM
TK-10 renal
  GI50: 22.3 µM
  TGI: 76.6 µM
SNB-75 CNS
  GI50: 3.54 µM
  TGI: 62.7 µM
SNB-19 CNS
  GI50: 14.8 µM
  TGI: 66.9 µM
RPMI-8226 leukemia
  GI50: 2.66 µM
  TGI: 17.5 µM
HT29 colon
  GI50: 39.3 µM
  TGI: > 100 µM
OVCAR-3 ovarian
  GI50: 15.3 µM
  TGI: > 100 µM
U251 CNS
  GI50: 12.3 µM
  TGI: 46 µM
BT-549 breast
  GI50: 1.97 µM
  TGI: 6.52 µM
SN12C renal
  GI50: 28.5 µM
  TGI: > 100 µM
NCI-H460 lung
  GI50: 7.17 µM
  TGI: > 100 µM
HCT-116 colon
  GI50: 3.99 µM
  TGI: 51.5 µM
CCRF-CEM leukemia
  GI50: 2.93 µM
  TGI: 50 µM
IGROV1 ovarian
  GI50: 19.3 µM
  TGI: > 100 µM
SR leukemia
  GI50: 6.04 µM
  TGI: > 100 µM
SK-MEL-28 melanoma
  GI50: 14 µM
  TGI: > 100 µM
K-562 leukemia
  GI50: 3.28 µM
  TGI: > 100 µM
HOP-62 NSCLC
  GI50: 22.1 µM
  TGI: 72.3 µM
OVCAR-5 ovarian
  GI50: 29.7 µM
  TGI: > 100 µM
786-0 renal
  GI50: 21.9 µM
  TGI: 60.4 µM
HCT-15 colon
  GI50: 4.24 µM
  TGI: > 100 µM
SF-295 CNS
  GI50: 8.33 µM
  TGI: 45.4 µM
MDA-MB-231 breast
  GI50: 16.2 µM
  TGI: 53.2 µM
SW-620 colon
  GI50: 8.22 µM
  TGI: > 100 µM
MALME-3M melanoma
  GI50: 4.28 µM
  TGI: 32.6 µM
A549 NSCLC
  GI50: 33.4 µM
  TGI: > 100 µM
EKVX NSCLC
  GI50: 15.7 µM
  TGI: 99.8 µM
RXF 393 renal
  GI50: 15.7 µM
  TGI: 82.5 µM
UACC-257 melanoma
  GI50: 12.5 µM
  TGI: > 100 µM
MOLT-4 leukemia
  GI50: 2.22 µM
  TGI: 5.97 µM
